In patent US7109186B2 (Bristol-Myers Squibb Company, priority 2002, dated 2006) one finds inhibition and melting point data, which are given here for 19 compounds.

One data set has as its target T1, HIV-integrase (Human immunodeficiency virus type 1 group M subtype B, UniProt P04585).
T1 construct: 0.26 ng of recombinant integrase was incubated with the beads for 90 min at 37 C
Put plainly: HIV integrase SPA integration assay (biotin-labeled substrate DNA on streptavidin SPA beads, P33-labeled target DNA). The class given is biochemical. The following applies: percent inhibition of HIV-integrase in the presence of 20 μM of compound. The protocol: For each reaction, 5 pmole of biotin labeled substrate DNA was bound to 100 ug of Streptavidin coated PVT SPA beads (Amersham Pharmacia Biotech). 0.26 ng of recombinant integrase was incubated with the beads for 90 min at 37 C. Unbound enzyme was removed by washing the complex followed by addition of inhibitors and 0.1 fmol of P33 labeled target DNA. Reaction was stopped by adding EDTA to a final concentration of 10 mM. Samples were counted in TopCountNXT (Packard) and the CPM was used as a measure of integration. Reaction condition was as described in A. Engelman and R. Craigie, J. Virol. 69, 5908–5911 (1995). The sequences of substrate and target DNA were described in Nucleic Acid Research 22, 1121–1122 (1994).

SMILES strings stand for the structures.

A word on the inhibition: it is the change of the read-out against control, counted positive when it falls. Broadly, the melting point is the temperature of the solid-liquid transition. `CCON(Cc1ccc(F)cc1)C(=O)C1=C(O)C(=O)N(C)C1` [Compound 53, 4-Hydroxy-1-methyl-5-oxo-2,5-dihydro-1H-pyrrole-3-carboxylic acid ethoxy-(4-fluoro-benzyl)-amide] yielded a melting point of 113 to 114 °C. Also, the inhibition at 20 µM on HIV-integrase was found to be 99%.

Consider `CON(Cc1ccc(F)c(F)c1)C(=O)C1=C(O)C(=O)N(C)C1` [Compound 54, 4-Hydroxy-1-methyl-5-oxo-2,5-dihydro-1H-pyrrole-3-carboxylic acid (3,4-difluoro-benzyl)-methoxy-amide], for which the melting point fell in the range of 146 to 147 °C. For the same compound, the inhibition at 20 µM on HIV-integrase was found to be 99.9%.

For `COc1ccc(CN(OC)C(=O)C2=C(O)C(=O)N(C)C2)cc1` [Compound 55, 4-Hydroxy-1-methyl-5-oxo-2,5-dihydro-1H-pyrrole-3-carboxylic acid methoxy-(4-methoxy-benzyl)-amide], the melting point fell in the range of 135 to 137 °C. Moreover, the inhibition at 20 µM on HIV-integrase came to 99.9%.

For the compound `CON(Cc1ccccc1C)C(=O)C1=C(O)C(=O)N(C)C1` [Compound 56, 4-Hydroxy-1-methyl-5-oxo-2,5-dihydro-1H-pyrrole-3-carboxylic acid methoxy-(2-methyl-benzyl)-amide], the melting point fell in the range of 153 to 154 °C. The inhibition at 20 µM on HIV-integrase came to 88%.

Take `CON(Cc1ccc(F)c(Br)c1)C(=O)C1=C(O)C(=O)N(C)C1` [Compound 57, 4-Hydroxy-1-methyl-5-oxo-2,5-dihydro-1H-pyrrole-3-carboxylic acid (3-bromo-4-fluoro-benzyl)-methoxy-amide]: the melting point was 154 to 157 °C (dec.). The inhibition at 20 µM at HIV-integrase worked out at 99.9%.

The compound `CC(C)CON(Cc1ccc(F)cc1)C(=O)C1=C(O)C(=O)N(C)C1` [Compound 58, 4-Hydroxy-1-methyl-5-oxo-2,5-dihydro-1H-pyrrole-3-carboxylic acid (4-fluoro-benzyl)-isobutoxy-amide] came in with a melting point of 96 to 97 °C. Further, at HIV-integrase, the inhibition at 20 µM was 99.5%.

Regarding `CON(Cc1ccc(C)cc1)C(=O)C1=C(O)C(=O)N(C)C1` [Compound 59, 4-Hydroxy-1-methyl-5-oxo-2,5-dihydro-1H-pyrrole-3-carboxylic acid methoxy-(4-methyl-benzyl)-amide], the melting point fell in the range of 150 to 152 °C. On HIV-integrase, the inhibition at 20 µM was 99.9%.

For the compound `CON(Cc1ccc(C#N)cc1)C(=O)C1=C(O)C(=O)N(C)C1` [Compound 62, 4-Hydroxy-1-methyl-5-oxo-2,5-dihydro-1H-pyrrole-3-carboxylic acid (4-cyano-benzyl)-methoxy-amide], the melting point is 161 °C (dec.). The inhibition at 20 µM on HIV-integrase is 97.7%.

With `CON(Cc1ccc(NC(C)=O)cc1)C(=O)C1=C(O)C(=O)N(C)C1` [Compound 63, 4-Hydroxy-1-methyl-5-oxo-2,5-dihydro-1H-pyrrole-3-carboxylic acid (4-acetylamino-benzyl)-methoxy-amide], the melting point amounted to 110 °C. The inhibition at 20 µM at HIV-integrase came out at 12%.

In turn, `CON(Cc1ccc(F)c(C)c1)C(=O)C1=C(O)C(=O)N(C)C1` [Compound 64, 4-Hydroxy-1-methyl-5-oxo-2,5-dihydro-1H-pyrrole-3-carboxylic acid (4-fluoro-3-methyl-benzyl)-methoxy-amide] yielded a melting point of 160 to 164 °C. Also, the inhibition at 20 µM on HIV-integrase is 99.7%.

For `CON(Cc1ccc(C)c(F)c1)C(=O)C1=C(O)C(=O)N(C)C1` [Compound 65, 4-Hydroxy-1-methyl-5-oxo-2,5-dihydro-1H-pyrrole-3-carboxylic acid (3-fluoro-4-methyl-benzyl)-methoxy-amide], the melting point turned out to be 145 °C. For the same compound, the inhibition at 20 µM on HIV-integrase was found to be 99.9%.

On to `CON(Cc1ccc(C(=O)O)cc1)C(=O)C1=C(O)C(=O)N(C)C1` [Compound 68, 4-{[(4-Hydroxy-1-methyl-5-oxo-2,5-dihydro-1H-pyrrole-3-carbonyl)-methoxy-amino]-methyl}-benzoic acid], for which the melting point was in the range of 196 to 197 °C. On HIV-integrase, the inhibition at 20 µM was 12%.

In turn, `CON(C(=O)C1=C(O)C(=O)N(C)C1)C(C)c1ccc(F)cc1` (centres unmarked) [Compound 69, 4-Hydroxy-1-methyl-5-oxo-2,5-dihydro-1H-pyrrole-3-carboxylic acid [1-(4-fluoro-phenyl)-ethyl]-methoxy-amide] displayed a melting point of 136 to 138 °C. At HIV-integrase, the inhibition at 20 µM came to 97%.

Compound `CN1CC(C(=O)N(Cc2ccc(F)cc2)OCC(=O)OC(C)(C)C)=C(O)C1=O` [Compound 70] gave a melting point of 128 to 130 °C. The inhibition at 20 µM on HIV-integrase was 99.8%.

Compound `CN1CC(C(=O)N(Cc2ccc(F)cc2)OCC(=O)O)=C(O)C1=O` [Compound 71, [(4-Fluoro-benzyl)-(4-hydroxy-1-methyl-5-oxo-2,5-dihydro-1H-pyrrole-3-carbonyl)-aminooxy]-acetic acid] returned a melting point of 147 to 150 °C. Further, the inhibition at 20 µM at HIV-integrase turned out to be 99.9%.

With `CN(C)C(=O)CON(Cc1ccc(F)cc1)C(=O)C1=C(O)C(=O)N(C)C1` [Compound 72, 4-Hydroxy-1-methyl-5-oxo-2,5-dihydro-1H-pyrrole-3-carboxylic acid dimethylcarbamoylmethoxy-(4-fluoro-benzyl)-amide], the melting point lay within 147 to 149 °C. Further, on HIV-integrase, the inhibition at 20 µM turned out to be 98.8%.

Compound `CON(Cc1ccc(F)cc1Cl)C(=O)C1=C(O)C(=O)N(C)C1` [Compound 74, 4-Hydroxy-1-methyl-5-oxo-2,5-dihydro-1H-pyrrole-3-carboxylic acid (2-chloro-4-fluoro-benzyl)-methoxy-amide] displayed a melting point of 152 to 155 °C. Besides, at HIV-integrase, the inhibition at 20 µM is 97.8%.

Consider `CN1CC(C(=O)N(C)C(Cc2ccc(Cl)cc2)Cc2ccc(Cl)cc2)=C(O)C1=O` [Compound 75, 4-Hydroxy-1-methyl-5-oxo-2,5-dihydro-1H-pyrrole-3-carboxylic acid [1-(4-chloro-benzyl)-2-(4-chloro-phenyl)-ethyl]-methyl-amide], for which the melting point was 152 to 154 °C. In addition, the inhibition at 20 µM on HIV-integrase came out at 96.5%.

Regarding `CN1CC(C(=O)N(Cc2ccc(F)cc2)c2ccc(Cl)c(Cl)c2)=C(O)C1=O` [Compound 78, 4-Hydroxy-1-methyl-5-oxo-2,5-dihydro-1H-pyrrole-3-carboxylic acid (3,4-dichloro-phenyl)-(4-fluoro-benzyl)-amide], the melting point is 195 °C (dec.). Moreover, the inhibition at 20 µM at HIV-integrase is 99.9%.
